Data on nine molecules can be found in US20200010562A1, “NEW THERAPEUTIC STRATEGIES AGAINST BLOOD CANCER” (priority 2015, published 2020).

Read-outs that look alike come from different tables or passages of the source.

The subject of one data set is L1210. In words: Erythrosin B exclusion survival/mortality of L1210 in control or FMD medium. Format: cell-based, murine.
A further data set concerns MEC1. In words: Survival/mortality of MEC1 in control or FMD medium. The following applies: for effect of FMD medium on growth inhibitory effect of the drug: FMD vs control medium. Format: cell-based, human.
For another data set, the system named is MEC2. In words: Survival/mortality of MEC2 in control or FMD medium. Format: cell-based, human. As to conditions: for effect of FMD medium on growth inhibitory effect of the drug: FMD vs control medium.
Data set [1] concerns relapsed and refractory indolent lymphomas. The following applies: single agent; cited from earlier work.
Data set [2] concerns MEC1 cells. Briefly: In vivo CLL model, FACS for human CD19/CD20/CD45 leukemic cells in tissues. Also on record: species or system Rag2−/−γc−/− female mice. As to conditions: in combination with STS; majority of analyzed tissues. Here is the method:
(§1) Eight-week-old Rag2−/−γ c−/− female mice were challenged intravenously (iv) via lateral tail veins with 10×10^6 MEC1 cells in 0.1 ml of saline through a 27-gauge needle, as previously described by Bertilaccio et al., (2010). Before injection, cells in log phase of growth were harvested and suspended in phosphate-buffered saline (PBS) at 100×10^6 cells/ml, and 100 μl (10×10^6 cells per mouse) was injected iv. All mice were gently warmed before intravenous injections to dilate the veins. Body weights were determined daily, and tumor progression was determined by blood smear. Animals were monitored every day for weight and general health conditions and were sacrificed when they experienced clinical signs of illness following the criteria approved and described in the protocol #742/2015—PR (see Animal Ethics Statement).
(§2) Animals were fasted for a total of 48 hours by complete deprivation of food but with free access to water. […] Body weight was measured daily and immediately before and after fasting. […]
For FACS analysis, after blocking fragment crystallizable receptors for 10 minutes at room temperature to avoid nonspecific binding of antibodies, cells from PB, BM, peritoneal exudates, and spleen were stained with PE-Vio770 anti-human CD19 antibody. FITC anti-human CD20 and TRITC anti-human CD45 anti-human, respectively (MACS Miltenyi Biotec) and analyzed with BD FACSCANTO II flow cytometer. […]

The test system of data set [3] is MEC1 cells. In words: In vivo CLL model, histopathological analysis of organs (H&E). Also on record: species or system Rag2−/−γc−/− female mice. As to conditions: majority of organs. How it is done: as §1, §2
For morphological analysis, organs (BM, spleen, kidney, liver and lung) were formalin-fixed, paraffin-embedded, cut at 3-μm-thick sections, and stained with hematoxylin and eosin. Histologic sections were evaluated in a double-blinded fashion. […] For these mice groups, the morphology of analyzed organ was similar to the control ([…]).

A short description of data set [4]: In vivo CLL model, spleen weight. Also noted: species or system Rag2−/−γc−/− female mice. The following applies: fasted (STS) groups. Here is the method: as §1
Animals were fasted for a total of 48 hours by complete deprivation of food but with free access to water. Mice were individually housed in a clean new cage to reduce cannibalism, coprophagy, and residual chow. Body weight was measured daily and immediately before and after fasting. […]
At the end of experimental procedure, peripheral blood (PB), peritoneal exudates and organs [spleen, kidneys, liver, lungs, and femoral bone marrow (BM)] were collected and analyzed either for FACS or morphological analyses. For all experimental group, spleen weight was measured (FIG. 21).

For a further data set, the system named is CD20. As to conditions: rituximab-resistant cell lines in vitro; cited from earlier work.
In data set [5] the test system is primary embryonic mouse fibroblast (MEF). As to conditions: 24 h, 10 μM.
Where [6] appears, read: alone or in combination with low glucose/FCS (FMD).

In the case of `O=P1(N(CCCl)CCCl)NCCCO1` (stereo not drawn) [Cyclophosphamide], in the data set with L1210, the killing tumor cells entry was “very effective in killing tumor cells”.
Regarding `O=C1O[C@H]([C@@H](O)CO)C(O)=C1O` [Vitamin C, L-Ascorbic acid], in the data set with L1210, the reducing survival rates entry was “did not show a strong efficiency”.
With `COc1cc(/C=C/C(=O)CC(=O)/C=C/c2ccc(O)c(OC)c2)ccc1O` [Curcumin], the reducing survival rates result in the data set with L1210 (setting [6]) is reported as “did not show a strong efficiency”.
As for Rituximab, the “effect on cell survival and death” value in the data set on MEC1 and in the data set on MEC2 was “very effective” each time. For the same molecule, in data set [1], the overall response rate was 50%.
With `CC(C)C[C@H](NC(=O)[C@H](Cc1ccccc1)NC(=O)c1cnccn1)B(O)O` [Bortezomib], the killing tumor cells entry in the data set with L1210 was “very effective in killing tumor cells”. Further, the “effect of FMD medium on growth inhibitory effect of the drug” value in the data set with MEC1 and in the data set on MEC2 was “remarkably improved” in each case. In addition, the “expression of human CD19, human CD20 and human CD45” value in the data set with MEC1 cells [2] is “significantly decreases”. For the same molecule, the “metastases and cluster of infiltration” value in the data set with MEC1 cells [3] (ad lib) and with MEC1 cells [3] (with STS) was “lesser expanse” in each case. Also, in data set [4], the spleen weight entry is on record as “significantly lower”. Also, in the data set on CD20, the CD20 expression result is recorded as “increases CD20 expression”.
With (−)Epigallocatechin Gallate [EGCG], the reducing survival rates result with L1210 is recorded as “did not show a strong efficiency”.
Take `O=C(/C=C/c1cccc(S(=O)(=O)Nc2ccccc2)c1)NO` [Belinostat]: in the data set with L1210, the killing tumor cells result is “very effective in killing tumor cells”. For the same molecule, the “effect of FMD medium on growth inhibitory effect of the drug” value in the data set on MEC1 and with MEC2 was “remarkably improved” throughout.
For `C[C@]12C=CC(=O)C=C1CC[C@@H]1[C@@H]2C(=O)C[C@@]2(C)[C@H]1CC[C@]2(O)C(=O)CO` [Prednisone], in the data set on L1210 (setting [6]), the reducing survival rates result is recorded as “did not show a strong efficiency”. Further, the “effect on L1210 growth” value in the data set with L1210 (independently of the application of the FMD) is “no or limited effect”.
On to `C/C=C1\NC(=O)[C@H]2CSSCC/C=C/[C@H](CC(=O)N[C@H](C(C)C)C(=O)N2)OC(=O)[C@H](C(C)C)NC1=O` [Romidepsin], for which, in data set [5], the “decrease of percentage of surviving cells” value is “about 50%”, the mortality rate result is on record as “about 12%”, the percentage of mortality was 4% and the survival rate result is on record as “about 77%”.
